Source: patent US7449465B2, “Triazolopyrimidine derivatives as glycogen synthase kinase 3 inhibitors” (Janssen Pharmaceutica, N.V., priority 2003, dated 2008)

Assays:
GSK3alpha = GSK3alpha (Homo sapiens, UniProt P49840); assay: GSK3alpha assay (same as the GSK3beta assay, 0.25 ng/μl GSK3alpha); format: biochemical; conditions: ranges of pIC50 (−log IC50 (M)), 1 μM ATP, read-out: GSK3a pIC50 (converted)
Description: (§1) GSK3beta assays were performed at room temperature in a 100 μl reaction volume of 25 mM Tris (pH 7.4) containing 10 mM MgCl2.6H2O, 1 mM DTI, 0.1 mgiml BSA, 5% glycerol and containing 5.7 ng/μl GSK3β, 5 μM biotinylated phosphorylated CREB peptide, 1 μM ATP, 0.85 μCi/ml ATP-P^33 and a suitable amount of a test compound of formula (I). After one hour, the reaction was terminated by adding 70 μl of Stop mix (0.1 mM ATP, 5 mg/ml streptavidin coated PVT SPA bead pH 11.0). The beads to which the phosphorylated CREB peptide is attached were allowed to settle overnight and the radioactivity of the beads was counted in a microtiterplate scintillation counter and compared with the results obtained in a control experiment (without the presence of a test compound) in order to determine the percentage of GSK3β inhibition. The IC50 value, i.e. the concentration (M) of the test compound at which 50% of GSK3β is inhibited, was calculated from the dose response curve obtained by performing the above-described GSK3β assay in the presence of different amounts of the test compound.
The GSK3alpha assay was performed in the same way as described above for the GSK3beta assay except for the concentration of GSK3alpha which is 0.25 ng/μl.

GSK3β = GSK3β (Homo sapiens, UniProt P49841); assay: GSK3beta assay (SPA, biotinylated phosphorylated CREB peptide, ATP-P33); format: biochemical; conditions: ranges of pIC50 (−log IC50 (M)); 1 μM ATP, room temperature, one hour; read-out: GSK3b pIC50 (converted)
Sequence of GSK3β (P49841 whole entry, species assumed): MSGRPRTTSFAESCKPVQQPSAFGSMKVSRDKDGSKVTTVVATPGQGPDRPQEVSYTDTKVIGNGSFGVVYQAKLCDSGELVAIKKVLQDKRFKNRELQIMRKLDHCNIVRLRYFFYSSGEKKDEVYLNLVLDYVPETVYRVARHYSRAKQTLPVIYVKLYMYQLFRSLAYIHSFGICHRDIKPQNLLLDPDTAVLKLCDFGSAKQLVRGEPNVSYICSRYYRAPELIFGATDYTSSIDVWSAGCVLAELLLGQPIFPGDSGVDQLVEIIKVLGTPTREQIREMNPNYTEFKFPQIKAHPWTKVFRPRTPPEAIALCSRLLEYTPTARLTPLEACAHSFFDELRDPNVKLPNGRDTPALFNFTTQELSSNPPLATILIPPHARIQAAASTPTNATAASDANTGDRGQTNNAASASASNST
Description: as §1

Sequence of GSK3alpha (P49840 whole entry, species assumed): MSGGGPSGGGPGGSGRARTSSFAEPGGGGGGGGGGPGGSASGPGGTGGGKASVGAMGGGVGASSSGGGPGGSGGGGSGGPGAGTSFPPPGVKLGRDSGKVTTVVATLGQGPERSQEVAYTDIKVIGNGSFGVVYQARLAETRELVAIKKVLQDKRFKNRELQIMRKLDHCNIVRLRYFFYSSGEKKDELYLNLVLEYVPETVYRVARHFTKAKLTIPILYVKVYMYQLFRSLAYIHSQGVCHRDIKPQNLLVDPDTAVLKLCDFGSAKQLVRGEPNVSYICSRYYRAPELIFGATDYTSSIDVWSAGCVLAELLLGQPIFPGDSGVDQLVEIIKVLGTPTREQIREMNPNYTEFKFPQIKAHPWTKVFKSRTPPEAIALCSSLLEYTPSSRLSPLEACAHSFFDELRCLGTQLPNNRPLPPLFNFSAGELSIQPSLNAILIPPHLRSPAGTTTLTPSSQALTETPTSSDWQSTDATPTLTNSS

Structure (SMILES)	melting point	IC50 (GSK3alpha)	IC50 (GSK3β)
Fc1cccc(-n2nnc3cnc(Nc4cccc(-c5cnccn5)c4)nc32)c1 [Compound 2]	> 260 °C	< 1e-08 M	< 1e-08 M
Cn1nccc1-c1cccc(Nc2ncc3nnn(-c4ccccc4)c3n2)c1 [Compound 9]	216 °C	< 1e-08 M	< 1e-08 M
Fc1cccc(-n2nnc3cnc(Nc4cccc(-c5cccnc5)c4)nc32)c1 [Compound 30]	208 to 212 °C	< 1e-08 M	< 1e-08 M
N#CCc1cccc(-n2nnc3cnc(Nc4cccc(-c5ccnc(N)n5)c4)nc32)c1 [Compound 87]	> 260 °C	< 1e-08 M	< 1e-08 M
CN1CCN(c2ccc(Nc3ncc4nnn(-c5cccc(CC#N)c5)c4n3)cc2)CC1 [Compound 88]	210 to 212 °C	< 1e-08 M	< 1e-08 M
OCc1cccc(-n2nnc3cnc(Nc4cccc(-c5cnco5)c4)nc32)c1 [Compound 96]	210 to 214 °C	< 1e-08 M	< 1e-08 M
CC(=O)NCc1cccc(-n2nnc3cnc(Nc4cccc(-c5cnco5)c4)nc32)c1 [Compound 115]	156 to 160 °C	< 1e-08 M	< 1e-08 M
COCC(=O)NCc1cccc(-n2nnc3cnc(Nc4cccc(-c5cnco5)c4)nc32)c1 [Compound 122]	210 to 214 °C	< 1e-08 M	< 1e-08 M
